Values of other authors as cited in patent publication US12297406B2, “Method for preparing a composition comprising cetylated fatty acids” (ALESCO S.R.L., priority 2019, dated 2025).

Details: European Union food additive E319

- acceptable daily intake (ADI): 0.7 mg/kg of body weight
Compound: CC(C)(C)c1cc(O)ccc1O [TBHQ, Tert-butyl-hydroquinone]
